Data on one molecule can be found in PMC7175277, “Hydroxylamine Analogue of Agmatine: Magic Bullet for Arginine Decarboxylase” (Biomolecules, 2020).

In general, inhibition refers to the drop in the measured response relative to a control, in per cent. The term IC50 denotes the concentration that inhibits the measured activity by half. Read a high IC50 as lower potency.

Entries after “also recorded” stand apart in the source; their conditions may differ.

The subject of assay [1] is Acremonium chrysogenum high-cephalosporin-yielding (HY) RNCM F-4081D. As to the kind of experiment: Fungal growth inhibition (drop-dilution, CD agar), HY strain. Type of assay: cell-based. The conditions noted are these: Hapsidospora chrysogena, 336 h, read-out: Growth inhibition. The text has this:
(§1) Two strains of Acremonium chrysogenum were used in this study: the wild-type (Brotzu) isolate ATCC 11550 (WT) and high-cephalosporin-yielding RNCM F-4081D (HY), derived from the WT [37]. The cultivation conditions were the same as previously described. The filamentous fungi were cultivated on agarized Czapek-Dox (CD) medium (30 g/L sucrose, 2 g/L NaNO3, 1 g/L K2HPO4, 0.5 g/L MgSO4×7 H2O, 0.5 g/L KCl, 0.01 g/L FeSO4×7 H2O, 20 g/L agar, pH 7.0–7.4). To determine the toxic effect of AO-Agm, APA, DFMA and DFMO on the growth of fungal cells the drop-dilution method was used with some modifications as described earlier. Cells were collected from agar slants and diluted with 0.9% NaCl solution up to OD600 = 0.5 (basic concentration), followed by serial tenfold dilutions with the same solution. […] The inoculated Petri dishes were incubated for 21 days at 26 °C. The inhibitory effects of the compounds were measured every three days after inoculation and evaluated by measuring the ratio of colony growth on agarized CD medium supplemented with AO-Agm, APA, DFMA, or DFMO to the growth in the control (agarized CD medium without any additions). The formula: growth inhibition % = [(Dc − Dt)/Dc] × 100, where Dc indicates the colony diameter in control set, and Dt indicates the colony diameter in the treatment set that was used to determine the percent of fungal growth inhibition. The data recorded were measured in triplicate and repeated at least twice.

The next assay deals with T1, E. coli ADC (Escherichia coli, UniProt P21170).
T1 construct: The kinetic parameters determined for the partially purified biosynthetic ADC from E. coli; endogenous in cells; host or cells: E. coli DH5α (39-53% ammonium sulphate fraction of the lysate, desalted)
T1 sequence (P21170 1-658): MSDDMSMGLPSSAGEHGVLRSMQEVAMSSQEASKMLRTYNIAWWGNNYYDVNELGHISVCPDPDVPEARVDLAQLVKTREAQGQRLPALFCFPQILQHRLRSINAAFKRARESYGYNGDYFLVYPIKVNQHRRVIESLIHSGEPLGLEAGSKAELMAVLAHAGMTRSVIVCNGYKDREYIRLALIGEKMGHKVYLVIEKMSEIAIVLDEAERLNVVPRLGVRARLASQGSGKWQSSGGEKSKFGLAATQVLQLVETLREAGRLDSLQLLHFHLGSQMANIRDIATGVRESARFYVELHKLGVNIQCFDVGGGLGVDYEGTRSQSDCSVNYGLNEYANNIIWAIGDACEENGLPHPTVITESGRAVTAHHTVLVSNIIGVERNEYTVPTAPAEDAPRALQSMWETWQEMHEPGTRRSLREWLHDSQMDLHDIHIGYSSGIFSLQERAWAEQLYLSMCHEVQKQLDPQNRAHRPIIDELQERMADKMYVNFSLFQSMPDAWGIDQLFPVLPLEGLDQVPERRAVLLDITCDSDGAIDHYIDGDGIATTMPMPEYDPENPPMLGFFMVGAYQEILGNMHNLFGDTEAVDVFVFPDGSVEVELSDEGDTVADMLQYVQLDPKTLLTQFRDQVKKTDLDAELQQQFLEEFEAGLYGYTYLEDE
Nature of the assay: E. coli ADC activity assay (HPLC of agmatine). Conditions: for inhibition at 0.1 µM: AO-Agm 100 nM; for inhibition at 0.1 µM / inhibition at 0.5 µM: no preincubation; for inhibition at 0.5 µM: AO-Agm 500 nM. Type of assay: biochemical. As for the experimental part:
(§2) The purification was performed using a modified procedure of earlier publication. E. coli strain DH5α was grown in Luria-Bertani broth at +37 °C with shaking (200 rpm) overnight. The cells were collected by centrifugation and the pellet was homogenized with Potter-Elvehjem in 10 volumes (w/v) of ice-cold 50 mM Tris-HCl pH 7.4, 1 mM DTT. The cell debris was removed by centrifugation at 12,000 g for 30 min at +4 °C. Solid (NH4)2SO4 was added to the supernatant, and the pellet precipitating between 39% and 53% saturation was separated. The precipitate was resuspended in ice-cold buffer containing 50 mM Tris-HCl pH 7.4 and 1 mM DTT and desalted by passage through Sephadex G-25 column (NAP-10 column, GE Healthcare). The protein concentration was measured with Bio-Rad protein reagent, and the partially purified enzyme preparation was mixed with 20% glycerol and aliquoted for storage at −80 °C.
[…] The ODC reaction mixture contained 50 mM Tris-HCl pH 7.8, 1 mM EDTA, 2.4 mM DTT, 0.1 mM PLP and 20 μg of partially purified enzyme preparation. The mixtures were either preincubated or not preincubated for 15 min at +40 °C in the presence of the inhibitor, after which the reaction was started by the addition of 18 μL of 10× substrate (L-Arg for ADC and L-Orn for ODC). After incubation for 30 min (ADC) or 20 min (ODC) at +40 °C, 20 μL of 50% sulphosalicylic acid containing 50 μM diaminoheptane (internal standard) was added and the samples were analyzed for the content of agmatine (ADC) and Put (ODC) with HPLC as described previously. The kinetic parameters and IC50 values were determined with the aid of GraphPad Prism version 5.03 using nonlinear regression analysis.

The subject of assay [2] is Acremonium chrysogenum wild-type (WT) ATCC 11550. As to the kind of experiment: Fungal growth inhibition (drop-dilution, CD agar), WT strain. The conditions noted are these: Hapsidospora chrysogena, ATCC11550, 336 h, 5 mM inhibitor, 14 days after inoculation on CD medium. It is filed as cell-based.
Text: as §1

In the next assay the target is E. coli ODC (Escherichia coli, UniProt P21169). As to the kind of experiment: E. coli ODC activity assay (HPLC of Put). Type of assay: biochemical. How it is done: as §2
E. coli ODC, sequence (P21169 whole entry): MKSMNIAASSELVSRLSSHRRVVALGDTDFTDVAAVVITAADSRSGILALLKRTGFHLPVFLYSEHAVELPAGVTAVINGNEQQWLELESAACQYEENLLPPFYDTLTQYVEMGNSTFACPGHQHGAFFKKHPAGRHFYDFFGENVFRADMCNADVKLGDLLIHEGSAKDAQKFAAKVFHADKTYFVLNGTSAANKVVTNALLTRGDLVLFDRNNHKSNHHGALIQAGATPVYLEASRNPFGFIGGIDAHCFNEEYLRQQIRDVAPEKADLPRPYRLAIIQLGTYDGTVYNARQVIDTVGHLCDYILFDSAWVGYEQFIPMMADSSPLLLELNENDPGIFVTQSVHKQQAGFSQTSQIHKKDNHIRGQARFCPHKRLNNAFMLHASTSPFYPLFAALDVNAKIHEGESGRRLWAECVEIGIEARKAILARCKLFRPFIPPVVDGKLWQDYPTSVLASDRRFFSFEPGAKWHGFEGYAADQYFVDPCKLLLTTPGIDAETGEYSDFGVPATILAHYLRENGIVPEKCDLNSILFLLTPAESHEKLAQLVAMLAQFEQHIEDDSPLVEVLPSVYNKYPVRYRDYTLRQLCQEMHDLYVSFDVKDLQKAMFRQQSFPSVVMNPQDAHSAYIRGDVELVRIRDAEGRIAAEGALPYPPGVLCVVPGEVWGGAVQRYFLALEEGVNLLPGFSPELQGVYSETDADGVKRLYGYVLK
The ADC reaction mixture contained 50 mM Tris-HCl pH 7.8, 4 mM MgCl2, 1 mM DTT, 1.0 or 0.1 mM PLP and 20 μg of partially purified enzyme preparation in a total volume of 162 μL. The ODC reaction mixture contained 50 mM Tris-HCl pH 7.8, 1 mM EDTA, 2.4 mM DTT, 0.1 mM PLP and 20 μg of partially purified enzyme preparation. […] After incubation for 30 min (ADC) or 20 min (ODC) at +40 °C, 20 μL of 50% sulphosalicylic acid containing 50 μM diaminoheptane (internal standard) was added and the samples were analyzed for the content of agmatine (ADC) and Put (ODC) with HPLC as described previously. The kinetic parameters and IC50 values were determined with the aid of GraphPad Prism version 5.03 using nonlinear regression analysis.

Where [3] appears, read: 0.1 mM PLP, 15 min preincubation, 0.15 mM L-Arg.

With `N=C(N)NCCCON` [AO-Agm, 1-aminooxy-3-guanidinopropane], the inhibition at 5000 µM in assay [1] is 49%; in assay [2], 34%. Also, the concentration for half-maximal inhibition (IC50) was 0.026 ± 0.001 µM against E. coli ADC (0.01 mM PLP, 15 min preincubation, 0.15 mM L-Arg); 0.03 ± 0.001 µM against E. coli ADC (setting [3]); 0.089 ± 0.001 µM against E. coli ADC (1 mM PLP, 15 min preincubation, 0.15 mM L-Arg). The “Effect of omitting the preincubation time on the efficiency of ADC inhibition” value on E. coli ADC (0.1 mM PLP, 0.15 mM L-Arg) was “did not significantly alter”. Moreover, on E. coli ADC (setting [3]), the “Potency as ADC inhibitor relative to DFMA (more potent)” value came to 330 times. The inhibition at 0.1 µM against E. coli ADC (0.15 mM L-Arg, 0.1 mM PLP) is 25%; against E. coli ADC (1.5 mM L-Arg, 0.1 mM PLP), around 5%. For the same molecule, the inhibition at 0.5 µM came out at 95% on E. coli ADC (0.15 mM L-Arg, 0.1 mM PLP) and 60% against E. coli ADC (1.5 mM L-Arg, 0.1 mM PLP). In addition, the “Potency towards E. coli ODC relative to E. coli ADC” value at E. coli ODC was “almost two orders of magnitude less potent; also recorded: almost two orders of magnitude less efficient”.
